Experimental findings from ChEMBL document CHEMBL4371047, “Effect of α-Methoxy Substitution on the Anti-HIV Activity of Dihydropyrimidin-4(3 H)-ones” (J Med Chem, 2019) are described below.

Data set [1] can be described thus: Therapeutic index, ratio of CC50 for human MT4 cells to EC50 for HIV-1 NL4-3 infected in human MT4 cells. It is filed as toxicity, cell-based. Conditions: read-out: Ratio CC50/EC50.
Data set [2] concerns Human immunodeficiency virus 1. The data set can be described thus: Antiviral activity against wild type HIV 1 NL4-3 infected in human MT4 cells assessed as inhibition of virus-induced cytopathic effect after 5 days by MTT assay. It is filed as functional, organism-based. Conditions: Human immunodeficiency virus 1, NL4-3, MT4, 120 h.
Data set [3] can be described thus: Cytotoxicity against human MT4 cells assessed as reduction in cell viability after 5 days by MTT assay. Type of data set: cell-based. A general note: Tetrazolium dyes change colour on reduction, which living cells bring about.
Data set [4] concerns Human immunodeficiency virus 1. The data set is described as follows: Antiviral activity against HIV-1 IRLL98 harboring reverse transcriptase M41L, D67N, Y181C, M184V, R211K, and T215Y mutants infected in human MT4 cells assessed as inhibition of virus-induced cytopathic effect after 5 days by MTT assay. Type of data set: functional, organism-based. Conditions: Human immunodeficiency virus 1, IRLL98, MT4, 120 h.

The test system of data set [5] is Human immunodeficiency virus 1. The data set is described as follows: Antiviral activity against HIV 1 harboring reverse transcriptase Y181C mutant infected in human MT4 cells assessed as inhibition of virus-induced cytopathic effect after 5 days by MTT assay. It is filed as functional, organism-based. Conditions: Human immunodeficiency virus 1, MT4, 120 h. On the technique in general: Protection from cytopathic effect is a common read-out in antiviral testing.

For data set [6], the system named is Human immunodeficiency virus 1. The data set is described as follows: Antiviral activity against HIV-1 harboring reverse transcriptase Y188L mutant infected in human MT4 cells assessed as inhibition of virus-induced cytopathic effect after 5 days by MTT assay. It is filed as functional, organism-based. Conditions: Human immunodeficiency virus 1, MT4, 120 h.
Data set [7] relates to Human immunodeficiency virus 1. The data set can be described thus: Antiviral activity against HIV-1 harboring reverse transcriptase K103N mutant infected in human MT4 cells assessed as inhibition of virus-induced cytopathic effect after 5 days by MTT assay. Conditions: Human immunodeficiency virus 1, MT4, 120 h. Type of data set: functional, organism-based.
Data set [8] deals with Human immunodeficiency virus 1. The data set can be described thus: Antiviral activity against HIV-1 harboring reverse transcriptase K103N/Y181C double mutant infected in human MT4 cells assessed as inhibition of virus-induced cytopathic effect after 5 days by MTT assay. Type of data set: functional, organism-based. Conditions: Human immunodeficiency virus 1, MT4, 120 h.
The subject of data set [9] is Human immunodeficiency virus 1. The data set can be described thus: Resistance index, ratio of EC50 for HIV-1 IRLL98 harboring reverse transcriptase M41L, D67N, Y181C, M184V, R211K, and T215Y mutants to EC50 for wild type HIV-1 NL4-3. It is filed as functional.
Data set [10] concerns Human immunodeficiency virus 1. The data set is described as follows: Resistance index, ratio of EC50 for HIV-1 harboring reverse transcriptase Y181C mutant to EC50 for wild type HIV-1 NL4-3. Type of data set: functional.
Data set [11] concerns Human immunodeficiency virus 1. The data set is described as follows: Resistance index, ratio of EC50 for HIV-1 harboring reverse transcriptase Y188L mutant to EC50 for wild type HIV-1 NL4-3. Type of data set: functional.
The subject of data set [12] is Human immunodeficiency virus 1. The data set can be described thus: Resistance index, ratio of EC50 for HIV-1 harboring reverse transcriptase K103N mutant to EC50 for wild type HIV-1 NL4-3. It is filed as functional.
For data set [13], the system named is Human immunodeficiency virus 1. The data set is described as follows: Resistance index, ratio of EC50 for HIV-1 harboring reverse transcriptase K103N/Y181C double mutant to EC50 for wild type HIV-1 NL4-3. It is filed as functional.
Data set [14] has as its system Human immunodeficiency virus 1. The data set can be described thus: Resistance index, ratio of ID50 for recombinant HIV-1 His-tagged reverse transcriptase p66/p51 K103N mutant to ID50 for recombinant wild type HIV-1 reverse transcriptase His-tagged p66/p51.
Data set [15] relates to Human immunodeficiency virus 1. The data set can be described thus: Resistance index, ratio of ID50 for recombinant HIV-1 His-tagged reverse transcriptase p66/p51 Y181I mutant to ID50 for recombinant wild type HIV-1 reverse transcriptase His-tagged p66/p51.
The subject of data set [16] is Human immunodeficiency virus 1. The data set is described as follows: Resistance index, ratio of ID50 for recombinant HIV-1 His-tagged reverse transcriptase p66/p51 L100I mutant to ID50 for recombinant wild type HIV-1 reverse transcriptase His-tagged p66/p51.
In data set [17] the test system is Human immunodeficiency virus 1. The data set can be described thus: Potency index, ratio of EFV EC50 to compound EC50 for HIV-1 IRLL98 harboring reverse transcriptase M41L, D67N, Y181C, M184V, R211K, and T215Y mutants infected in human MT4 cells. It is filed as functional.
For data set [18], the system named is Human immunodeficiency virus 1. The data set can be described thus: Potency index, ratio of TMC120 EC50 to compound EC50 for HIV-1 IRLL98 harboring reverse transcriptase M41L, D67N, Y181C, M184V, R211K, and T215Y mutants infected in human MT4 cells. It is filed as functional.
Data set [19] relates to Human immunodeficiency virus 1. The data set is described as follows: Potency index, ratio of EFV EC50 to compound EC50 for HIV-1 harboring reverse transcriptase K103N/Y181C double mutant infected in human MT4 cells. Type of data set: functional.
Data set [20] addresses Human immunodeficiency virus type 1 reverse transcriptase (Human immunodeficiency virus 1) (UniProt Q72547).
Description: Inhibition of recombinant wild type HIV-1 His-tagged reverse transcriptase p66/p51 expressed in Escherichia coli assessed as reduction in [3H]dTTP incorporation using poly(rA)/oligo(dT) as template/primer after 20 mins by scintillation counting analysis
For data set [21], the system named is Human immunodeficiency virus type 1 reverse transcriptase (Human immunodeficiency virus 1), Q72547 [K103N].
Description: Inhibition of recombinant HIV-1 His-tagged reverse transcriptase p66/p51 K103N mutant expressed in Escherichia coli assessed as reduction in [3H]dTTP incorporation using poly(rA)/oligo(dT) as template/primer after 20 mins by scintillation counting analysis
The test system of data set [22] is Human immunodeficiency virus type 1 reverse transcriptase (Human immunodeficiency virus 1), Q72547 [Y181I].
Data set [23] concerns Human immunodeficiency virus type 1 reverse transcriptase (Human immunodeficiency virus 1), Q72547 [L100I].

`CCCN(C)c1nc(C(OC)c2c(Cl)cccc2Cl)c(C)c(=O)[nH]1` (stereo not drawn): in data set [1], the selectivity ratio was in the range of 70800 to 78700. Further, the EC50 in [2] was 0.9 to 1 nM; in [4], 2 nM; in [5], 11 to 14 nM; in [6] it was 30 to 35 nM; in [7] it was 6 to 7 nM; in data set [8], 31 nM. In data set [3], the CC50 at 120 h is 70.8 µM. For the same compound, the “Ratio EC50” value in [9] is reported as 2; in data set [10], 11 - 16; in [11], 30 - 39; in data set [12], 7; in data set [13], 34; in data set [17] it was 2000 - 3000. The entries for the “Ratio EC50” value in data set [18] and in data set [19] were 3 - 10 and 5 - 15, respectively. For the same compound, the Ratio in [14] is 2; in [15] it was 46 to 47; in data set [16], 21 to 23. For the same compound, the ID50 in data set [20] was in the range of 16 to 18 nM; in data set [21], 38 to 42 nM; in data set [22] it was 740 to 840 nM; in [23], 340 to 420 nM.

The term EC50 denotes the concentration needed to bring the measured effect to its halfway point. One may read the CC50 as the concentration at which the toxic effect on the cells reaches its halfway point.
